Consider eleven compounds from US8394789B2, “(Dihydro)pyrrolo[2,1-α]isoquinolines” (MSD Oss B.V., priority 2008, dated 2013).

For the assay, the target named is T1, human FSH receptor (Homo sapiens, UniProt P23945).
T1 construct: expressed in transfected cells
T1 sequence (P23945 18-695): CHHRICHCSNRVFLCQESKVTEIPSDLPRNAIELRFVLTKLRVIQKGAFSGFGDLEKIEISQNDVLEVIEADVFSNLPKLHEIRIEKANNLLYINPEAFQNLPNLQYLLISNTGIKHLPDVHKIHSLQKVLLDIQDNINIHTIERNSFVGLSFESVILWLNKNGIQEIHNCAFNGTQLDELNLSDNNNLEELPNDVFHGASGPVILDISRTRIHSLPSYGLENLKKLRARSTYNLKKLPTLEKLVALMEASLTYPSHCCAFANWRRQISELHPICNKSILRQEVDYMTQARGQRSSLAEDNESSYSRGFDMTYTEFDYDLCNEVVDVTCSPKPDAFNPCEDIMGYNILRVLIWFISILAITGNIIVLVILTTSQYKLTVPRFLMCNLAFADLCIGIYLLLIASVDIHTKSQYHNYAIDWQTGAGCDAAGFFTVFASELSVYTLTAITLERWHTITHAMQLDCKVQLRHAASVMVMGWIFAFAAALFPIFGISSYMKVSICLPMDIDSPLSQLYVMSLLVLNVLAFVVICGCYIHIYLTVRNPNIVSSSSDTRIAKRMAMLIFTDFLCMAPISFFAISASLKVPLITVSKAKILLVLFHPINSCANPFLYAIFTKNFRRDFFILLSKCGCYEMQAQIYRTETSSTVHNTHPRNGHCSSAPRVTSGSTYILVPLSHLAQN
In words: hFSHRago (CHO luc): agonistic activity at the human FSH receptor expressed in CHO cells, CRE-luciferase reporter. In kind it is cell-based. The following applies: CHO cells stably transfected with human FSH receptor and CRE/luciferase reporter; 4 hours of incubation.
Text: The term EC50 means the concentration of the test compound that elicits half-maximal (50%) stimulation compared to the compound's maximally attainable effect. The values can be determined e.g. in a cell line transfected with a FSH receptor gene and cotransfected with a cAMP responsive element/promoter directing the expression of a reporter gene. Values can be determined using the software program such as MathIQ (version 2.0, ID Business Solutions Limited).
Agonistic activity of the compounds at the human FSH receptor was determined in Chinese Hamster Ovary (CHO) cells stably transfected with the human FSH receptor and cotransfected with a cAMP responsive element (CRE)/promoter directing the expression of a firefly luciferase reporter gene. […] Cells (7,500 cells/well of a 384 well plate) were incubated in Dulbecco' minimal essential F12 modified medium (Invitrogen), supplemented with 1 μg/ml bovine insulin, 5 μg/ml human apo-transferrin, 80 U/ml penicillin G and 80 μg/ml streptomycin with the test compounds (concentration between 0.0316 nM and 10.0 μM) in duplicate in a humidified atmosphere (95%) at 5-7% CO2 and 37° C. The final concentration of DMSO was 1%. After 4 hours of incubation, plates were allowed to adjust to room temperature for 1 hour. Then, Luclite (PerkinElmer) solution was added to the wells and cells were allowed to lyse for at least 1 hour at room temperature. Subsequently, luciferase activity was measured in a luminescence counter. The signal is expressed as counts per second (cps). The EC50 (concentration of the test compound that elicits half-maximal (50%) luciferase stimulation compared to the compound's maximally attainable effect) and efficacy values (maximal effect of the test compound as percentage of the maximal effect of recombinant human FSH) of the compounds were determined using the software program MathIQ (version 2.0, ID Business Solutions Limited).
With `COc1cc2c(cc1OC(C)C)-c1c(-c3cccs3)cc(C(=O)N(C)C3C[C@@H]4CN(C(C)=O)C[C@@H]4C3)n1CC2` (stereo partly drawn) [Example 24, 9-Isopropoxy-8-methoxy-1-thiophen-2-yl-5,6-dihydro-pyrrolo[2,1-α]isoquinoline-3-carboxylic acid (2-acetyl-octahydro-cyclopenta[c]pyrrol-5(endo)-yl)-methyl-amide], the midpoint of the response, the EC50, lay at 0.191 µM. The same measure for `CC#Cc1cc2c(cc1OC)CCn1c(C(=O)N(C)C(C)(C)C)cc(-c3cccs3)c1-2` [Example 85b, 8-Methoxy-9-prop-1-ynyl-1-thiophen-2-yl-5,6-dihydro-pyrrolo[2,1--α]isoquinoline-3-carboxylic acid tert-butyl-methyl-amide]: 0.0027 µM; for `COc1cc2c(cc1OC)-c1c(-c3cccs3)cc(C(=O)N3CC[C@@H](NC(=O)N(C)C)C3)n1CC2` [Example 106, 3-[(R)-1-(8,9-Dimethoxy-1-thiophen-2-yl-5,6-dihydro-pyrrolo[2,1-α]isoquinoline-3-carbonyl)-pyrrolidin-3-yl]-1,1-dimethyl-urea]: 0.755 µM. `COc1cc2c(cc1OC(C)C)-c1c(Br)cc(C(=O)N(C)C(C)(C)C)n1CC2` [Example 37c, 1-Bromo-9-isopropoxy-8-methoxy-5,6-dihydro-pyrrolo[2,1-α]isoquinoline-3-carboxylic acid tert-butyl-methyl-amide] gave an EC50 of 0.234 µM. Compared with the last compound, the EC50 is about 3.2-fold lower.

`CN(C(=O)c1cc(-c2cccs2)c2n1CCc1ccc(N3CCCC3=O)cc1-2)C(C)(C)C` [Example 88, 9-(2-Oxo-pyrrolidin-1-yl)-1-thiophen-2-yl-5,6-dihydro-pyrrolo[2,1-α]isoquinoline-3-carboxylic acid tert-butyl-methyl-amide] gave a concentration for a half-maximal effect (EC50) of 0.31 µM. The result for `COc1cc2c(cc1OC(C)C)-c1c(-c3cccs3)cc(C(=O)N3CC=CC3)n1CC2` [Example 15, (2,5-Dihydro-pyrrol-1-yl)-(9-isopropoxy-8-methoxy-1-thiophen-2-yl-5,6-dihydro-pyrrolo[2,1-α]isoquinolin-3-yl)-methanone] reads 0.249 µM; that for `COc1cc2c(cc1OC(C)C)-c1c(-c3cccs3)cc(C(=O)N3CCCN(C(=O)CCN)CC3)n1CC2` [Example 5, 3-Amino-1-[4-(9-isopropoxy-8-methoxy-1-thiophen-2-yl-5,6-dihydro-pyrrolo[2,1-α]isoquinoline-3-carbonyl)-[1,4]diazepan-1-yl]-propan-1-one], 1.4 µM; that for `COc1cc2c(cc1OC(C)C)-c1c(-c3cccs3)cc(C(=O)N3CCCN(C(=O)C4(Br)CCC4)CC3)n1CC2` [Example 8, [4-(1-Bromo-cyclobutanecarbonyl)-[1,4]diazepan-1-yl]-(9-isopropoxy-8-methoxy-1-thiophen-2-yl-5,6-dihydro-pyrrolo[2,1-α]isoquinolin-3-yl)-methanone], 0.0068 µM. `COc1cc2c(cc1OC(C)C)-c1c(-c3cccs3)c(C#N)c(C(=O)N3CCCN(C(=O)C4CCC4)CC3)n1CC2` [Example 7d, 3-(4-Cyclobutanecarbonyl-[1,4]diazepane-1-carbonyl)-9-isopropoxy-8-methoxy-1-thiophen-2-yl-5,6-dihydro-pyrrolo[2,1-α]isoquinoline-2-carbonitrile]: the EC50 was 0.0003 µM. This EC50 lies about 23-fold lower than the previous one. The result for `COc1cc2c(cc1OC(C)C)-c1c(-c3ccccn3)cc(C(=O)N3CCCN(C(=O)c4ccccn4)CC3)n1CC2` [Example 35, (9-Isopropoxy-8-methoxy-1-pyridin-2-yl-5,6-dihydro-pyrrolo[2,1-α]isoquinolin-3-yl)-[4-(pyridine-2-carbonyl)-[1,4]diazepan-1-yl]-methanone; trifluoro acetic acid] reads 0.244 µM; that for `COc1cc2c(cc1OCCSC)-c1c(-c3cccs3)cc(C(=O)N(C)C(C)(C)C)n1CC2` [Example 71, 8-Methoxy-9-(2-methylsulfanyl-ethoxy)-1-thiophen-2-yl-5,6-dihydro-pyrrolo[2,1-α]isoquinoline-3-carboxylic acid tert-butyl-methyl-amide], 0.0263 µM.

As a reminder, the EC50 is the concentration giving half of the maximal effect. A high value points to a need for much substance.
